Measurements taken from US8088930B2, “Benzimidazole derivatives” (Hoffmann-La Roche Inc., priority 2008, dated 2012).
pIC50: −log10 of the molar value.

Target: T1, FXR ligand binding domain (GST-FXR LBD fusion protein, human FXR aa 193-473) (Homo sapiens, UniProt Q96RI1)
T1 construct: fused on or other part: Glutathione-S-transferase (GST) fused N-terminally to the FXR LBD, used to capture the protein on glutathione SPA beads
T1 sequence (Q96RI1 211-486 limits assumed): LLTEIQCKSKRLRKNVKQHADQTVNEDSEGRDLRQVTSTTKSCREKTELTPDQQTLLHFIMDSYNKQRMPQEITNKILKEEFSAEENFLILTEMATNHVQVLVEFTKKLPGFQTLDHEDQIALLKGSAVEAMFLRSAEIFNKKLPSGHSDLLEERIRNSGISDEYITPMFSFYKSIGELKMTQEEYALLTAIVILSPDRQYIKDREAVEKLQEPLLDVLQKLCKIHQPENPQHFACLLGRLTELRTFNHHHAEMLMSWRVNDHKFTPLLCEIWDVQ
Experiment: Radioligand binding assay (scintillation proximity, radioligand displacement)
Settings: 40 nM GST-FXR LBD on SPA beads, test compound 6×10^−9 M to 2.5×10^−5 M, read-out: h-IC50 Binding
In short: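 40 nM GST-FXR LBD, E. coli-expressed, bound to glutathione yttrium silicate SPA beads in 50 mM Hepes pH 7.4, 10 mM NaCl, 5 mM MgCl2, 0.01% CHAPS. Test compounds displace radioligand (e.g. 20 nM benzimidazolyl-acetamide ligand); bound ligand measured by scintillation proximity counting.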

Row | SMILES | pIC50
1 | O=C(O)c1cnc(OCC(C2CCCCC2)n2c(-c3ccc(Cl)cc3)nc3cc(F)c(F)cc32)c(Br)c1 (stereo not drawn) [Example 114, 5-Bromo-6-{2-[2-(4-chloro-phenyl)-5,6-difluoro-benzoimidazol-1-yl]-2-cyclohexyl-ethoxy}-nicotinic acid] | 7.22
2 | O=C(O)C1(Oc2ccc(OCC(C3CCCCC3)n3c(-c4ccc(Cl)cc4)nc4cc(F)c(F)cc43)cc2)CCC1 (stereo not drawn) [Example 117, 1-(4-{2-[2-(4-Chloro-phenyl)-5,6-difluoro-benzoimidazol-1-yl]-2-cyclohexyl-ethoxy}-phenoxy)-cyclobutanecarboxylic acid] | 7.40
3 | O=C(O)C1(Oc2ccc(OCC(C3CCCCC3)n3c(-c4ccc(Cl)cc4)nc4cc(F)c(F)cc43)cc2)CC1 (stereo not drawn) [Example 120, 1-(4-{2-[2-(4-Chloro-phenyl)-5,6-difluoro-benzoimidazol-1-yl]-2-cyclohexyl-ethoxy}-phenoxy)-cyclopropanecarboxylic acid] | 7.52
4 | Cc1cc(Cl)ccc1-c1nc2cc(F)c(F)cc2n1C(COc1ccc(C(=O)O)cn1)C1CCCCC1 (stereo not drawn) [Example 123, 6-{2-[2-(4-Chloro-2-methyl-phenyl)-5,6-difluoro-benzoimidazol-1-yl]-2-cyclohexyl-ethoxy}-nicotinic acid] | 7.52
5 | Cc1cc(Cl)ccc1-c1nc2cc(F)c(F)cc2n1C(COc1c(F)cc(C(=O)O)cc1F)C1CCCCC1 (stereo not drawn) [Example 124, 4-{2-[2-(4-Chloro-2-methyl-phenyl)-5,6-difluoro-benzoimidazol-1-yl]-2-cyclohexyl-ethoxy}-3,5-difluoro-benzoic acid] | 8.52
6 | Fc1cc2nc(-c3ccc(Cl)cc3)n(C(COc3c(F)cc(-c4nnn[nH]4)cc3F)C3CCCCC3)c2cc1F (stereo not drawn) [Example 127, 2-(4-Chloro-phenyl)-1-{1-cyclohexyl-2-[2,6-difluoro-4-(1H-tetrazol-5-yl)-phenoxy]-ethyl}-5,6-difluoro-1H-benzoimidazole] | 9.00
7 | Fc1cc(-c2nnn[nH]2)cc(F)c1OCC(C1CCCCC1)n1c(-c2ccc(Cl)cc2)nc2ccccc21 (stereo not drawn) [Example 128, 2-(4-Chloro-phenyl)-1-{1-cyclohexyl-2-[2,6-difluoro-4-(1H-tetrazol-5-yl)-phenoxy]-ethyl}-1H-benzoimidazole] | 7.70
8 | COc1ccc(-c2nc3cc(F)c(F)cc3n2C(COc2c(F)cc(-c3nnn[nH]3)cc2F)C2CCCCC2)c(OC)n1 (stereo not drawn) [Example 129, 1-{1-Cyclohexyl-2-[2,6-difluoro-4-(1H-tetrazol-5-yl)-phenoxy]-ethyl}-2-(2,6-dimethoxy-pyridin-3-yl)-5,6-difluoro-1H-benzoimidazole] | 7.70
9 | O=C(O)c1ccc(OCC(C2CCCCCC2)n2c(-c3ccc(Cl)cc3)nc3cc(F)c(F)cc32)nc1 (stereo not drawn) [Example 130, 6-{2-[2-(4-Chloro-phenyl)-5,6-difluoro-benzoimidazol-1-yl]-2-cycloheptyl-ethoxy}-nicotinic acid] | 6.52
10 | O=C(O)c1cc(F)c(OCC(C2CCCCCC2)n2c(-c3ccc(Cl)cc3)nc3cc(F)c(F)cc32)c(F)c1 (stereo not drawn) [Example 131, 4-{2-[2-(4-Chloro-phenyl)-5,6-difluoro-benzoimidazol-1-yl]-2-cycloheptyl-ethoxy}-3,5-difluoro-benzoic acid] | 7.70
11 | Cc1cc(-c2nnn[nH]2)cc(C)c1OCC(C1CCC(F)(F)CC1)n1c(-c2ccc(Cl)cc2)nc2cc(F)c(F)cc21 (stereo not drawn) [Example 134, 2-(4-Chloro-phenyl)-1-{1-(4,4-difluoro-cyclohexyl)-2-[2,6-dimethyl-4-(1H-tetrazol-5-yl)-phenoxy]-ethyl}-5,6-difluoro-1H-benzoimidazole] | 8.00
12 | Cc1cc(-c2nnn[nH]2)cc(C)c1OCC(C1CCCC1)n1c(-c2ccc(Cl)cc2)nc2cc(F)c(F)cc21 (stereo not drawn) [Example 135, 2-(4-Chloro-phenyl)-1-{1-cyclopentyl-2-[2,6-dimethyl-4-(1H-tetrazol-5-yl)-phenoxy]-ethyl}-5,6-difluoro-1H-benzoimidazole] | 7.70
13 | Cc1cc(-c2nnn[nH]2)cc(C)c1OCC(C1CC1)n1c(-c2ccc(Cl)cc2)nc2cc(F)c(F)cc21 (stereo not drawn) [Example 136, 2-(4-Chloro-phenyl)-1-{1-cyclopropyl-2-[2,6-dimethyl-4-(1H-tetrazol-5-yl)-phenoxy]-ethyl}-5,6-difluoro-1H-benzoimidazole] | 7.00
14 | Fc1cc2nc(-c3ccc(Cl)cc3)n(C(CNc3ccc(-c4nnn[nH]4)cc3)C3CCCCC3)c2cc1F (stereo not drawn) [Example 139, {2-[2-(4-Chloro-phenyl)-5,6-difluoro-benzoimidazol-1-yl]-2-cyclohexyl-ethyl}-[4-(1H-tetrazol-5-yl)-phenyl]-amine] | 8.52
15 | O=C(O)c1ccc(SCC(C2CCCCC2)n2c(-c3ccc(Cl)cc3)nc3cc(F)c(F)cc32)cc1 (stereo not drawn) [Example 140, 4-{2-[2-(4-Chloro-phenyl)-5,6-difluoro-benzoimidazol-1-yl]-2-cyclohexyl-ethylsulfanyl}-benzoic acid] | 7.15
16 | O=C(O)c1ccc(S(=O)(=O)CC(C2CCCCC2)n2c(-c3ccc(Cl)cc3)nc3cc(F)c(F)cc32)cc1 (stereo not drawn) [Example 141, 4-{2-[2-(4-Chloro-phenyl)-5,6-difluoro-benzoimidazol-1-yl]-2-cyclohexyl-ethanesulfonyl}-benzoic acid] | 5.09
17 | O=C(O)c1ccc(CCC(C2CCCCC2)n2c(-c3ccccc3)nc3cc(F)c(F)cc32)cc1 (stereo not drawn) [Example 142, 4-[3-Cyclohexyl-3-(5,6-difluoro-2-phenyl-benzoimidazol-1-yl)-propyl]-benzoic acid] | 8.30
18 | COc1ccc(-c2nc3cc(F)c(F)cc3n2C(CCc2ccc(C(=O)O)cc2)C2CCCCC2)c(OC)n1 (stereo not drawn) [Example 145, 4-{3-Cyclohexyl-3-[2-(2,6-dimethoxy-pyridin-3-yl)-5,6-difluoro-benzoimidazol-1-yl]-propyl}-benzoic acid] | 9.52
